Earlier results as cited in US20220273590A1, “COMPOUNDS FOR PREVENTION AND TREATMENT OF POST-OPERATIVE COGNITIVE DYSFUNCTION” (ABREXA PHARMACEUTICALS, INC., priority 2019, published 2022).

Details: cited from earlier work

In the case of [Mg+2] [Magnesium], the “reduction of POCD” value (administered intravenously during cardiac surgery, clinical trial NCT00041392) is given as “failed to reduce POCD”.
For Cc1cccc([C@H](C)c2cnc[nH]2)c1C [Dexmedetomidine], the “efficacy for POCD” value (Skvarc et al. (2018)) is listed as “failed to show efficacy”.
In the case of CCN(C)C(=O)Oc1cccc([C@H](C)N(C)C)c1 [Rivastigmine], the “efficacy for the treatment of POCD” value (clinical investigation NCT00835159, at termination) is listed as “no efficacy was observed” and the “safety in the treatment of POCD” value (seriously ill patients after surgery, clinical investigation NCT00835159 terminated) is listed as “too dangerous”.
